The target in series [1] is T1, recombinant Arabidopsis thaliana GAT-ADCS (Arabidopsis thaliana, UniProt Q8LPN3).
T1 construct: made in house
The experiment in a line: Determination of GAT-ADCS activities (glutamate or pABA production, fluorescence). It counts as biochemical. Here is the method:
Both proteins were expressed and purified as described in the publication of D. Camara et al., Archives of Biochemistry and Biophysics 505 (2011) 83-90.
GAT-ADCS activity can be determined by measuring the production of either glutamate or pABA. Standard assays contained 100 mM Tris/HCl (pH 8.0), 5 mM MgCl2, 5% V/V glycerol, 0 to 0.5 mM L-glutamine, 0.1 mM chorismate, 9 yg ml^-1 (90 nM) of the recombinant Arabidopsis thaliana GAT-ADCS and either 1 mM NAD and an excess of glutamate deshydrogenase (GDH) for glutamate determination, or an excess of Escherichia coli ADCL (20 µg ml^-1, 600 nM) for pABA determination. Reactions (final volume 80 µl) were run in the wells of a 96 well microplate (Greiner) and changes in fluorescence were continuously monitored with a microplate scanning spectrophotometer Safir 2 (Tecan). The glutamate production was followed by the fluorescence emission of NADH at 450 nm (excitation 340 nm). The pABA production was directly followed by the increase of the fluorescence emission at 340 nm (excitation 290 nm).
The equipment involved an automated screening station (Tecan Genesis 2000, Lyon, France), including a microplate reader. The platform is controlled by software for driving of serial devices and assays scheduling (Tecan Gemini 4.2 and FACTS 4.82 software). The library of compounds was purchased from The Prestwick Chemical Library®. This library contains 1200 molecules, 100% being marketed drugs, supplied at a 5 mM concentration in DMSO. The final concentration used in the enzymatic assay was 100 µM, and it was verified in separate control experiments that 2% DMSO had no effect on the activity. The enzymatic test used to determine GAT-ADCS activity in primary and secondary screenings was based on glutamate determination, as described above. After optimization of the assay, the Z' factor was comprised between 0.68 and 0.84.

For the next series, the target named is ADCS (Escherichia coli, UniProt P05041). The conditions noted are these: purified enzyme; M. C. Kozlowski et al., J. Am. Chem. Soc. 117 (1995); cited from earlier work.
ADCS, sequence (P05041 whole entry): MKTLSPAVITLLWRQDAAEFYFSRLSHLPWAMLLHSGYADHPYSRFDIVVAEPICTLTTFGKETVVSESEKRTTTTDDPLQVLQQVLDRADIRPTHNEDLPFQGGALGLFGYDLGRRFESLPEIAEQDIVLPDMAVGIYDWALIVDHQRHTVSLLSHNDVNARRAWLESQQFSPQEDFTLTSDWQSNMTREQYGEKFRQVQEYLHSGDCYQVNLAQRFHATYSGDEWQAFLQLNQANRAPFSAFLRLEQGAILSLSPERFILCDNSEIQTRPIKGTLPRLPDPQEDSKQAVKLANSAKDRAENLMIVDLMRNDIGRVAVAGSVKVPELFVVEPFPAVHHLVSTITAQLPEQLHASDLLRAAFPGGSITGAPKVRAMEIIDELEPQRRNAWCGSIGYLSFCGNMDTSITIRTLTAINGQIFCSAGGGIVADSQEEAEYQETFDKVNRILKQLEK
In another series the target is T2, ADCL (Escherichia coli, UniProt P28305).
T2 construct: made in house
T2 sequence (P28305 whole entry): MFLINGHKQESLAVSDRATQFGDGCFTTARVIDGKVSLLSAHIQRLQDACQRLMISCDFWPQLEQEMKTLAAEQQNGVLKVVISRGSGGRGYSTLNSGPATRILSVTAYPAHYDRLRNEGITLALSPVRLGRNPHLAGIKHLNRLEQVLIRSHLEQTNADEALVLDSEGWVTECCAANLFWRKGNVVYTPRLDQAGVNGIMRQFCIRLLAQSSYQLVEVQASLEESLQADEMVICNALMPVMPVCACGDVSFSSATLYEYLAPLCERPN
The experiment in a line: Control experiment on ADCL. To be noted: control experiments. Type of series: biochemical.

The subject of series [2] is 3D7 strain of Plasmodium falciparum. The experiment in a line: Plasmodium falciparum SYBR Green 1-based fluorescence growth assay. It counts as cell-based. To be noted: 3D7, 96 h. Here is the method: The 3D7 strain of Plasmodium falciparum was maintained in O+ blood. A rubreserine 10 mM stock concentration was made up in 1 × PBS pH = 7.5. This stock solution was then diluted serially to obtain the growth curve. Growth inhibition was measured after 96 hours by using an in vitro SYBR Green 1-based fluorescence growth assay, as previously described (T. N. Bennett et al., Antimicrob. Agents Chemoter. (2004) 48 1807-1810; M. Smilkstein et al., Antimicrob. Agents Chemoter. (2004) […] 1803-1806).

The test system of series [3] is Toxoplasma gondii tachyzoites (RH-YFP2 strain). The experiment in a line: Toxoplasma gondii intracellular proliferation assay. Type of series: cell-based. The procedure: (§1) Toxoplasma gondii tachyzoites (RH-YFP2 strain) were propagated in human foreskin fibroblasts (HFFs). Human cells were grown in DMEM supplemented with 100 U/mL penicillin, […] streptomycin, 2 mM glutamine, and 10% FBS (Gibco). To obtain extracellular parasites, host cells were forced through a 26.5 gauge needle, and then the released parasites were purified by filtration through a 3 µm polycarbonate membrane before use.
For the proliferation assay, 10^5 parasites/well were centrifuged on HFF monolayers for 30 seconds at 1300 rpm and incubated for 15 minutes in a water bath at 37°C for invasion. Wells were then washed three times with PBS to eliminate extracellular parasites and drugs were added. After 24 hours at 37°C in a humidified atmosphere containing 5% CO2, cells were fixed as described above. The number of parasites from up to 200 individual vacuoles was counted for each drug concentration.

In series [4] the test system is confluent human fibroblast cells. The experiment in a line: Effect on confluent human fibroblast cells. Type of series: cell-based. The conditions noted are these: concentrations up to 50 µM. Here is the method: Firstly, it was verified that rubreserine concentrations up to 50 µM had no effect on confluent human fibroblast cells. The effect of rubreserine on Toxoplasma gondii parasites was then studied in two situations: • i) in invasion of human fibroblasts, and • ii) in intracellular development of the parasites.

The subject of series [5] is Arabidopsis thaliana (ecotype Columbia) seedlings. The experiment in a line: Arabidopsis thaliana seedling growth on agar plates. Type of series: in vivo. Here is the method:
Arabidopsis thaliana (ecotype Columbia) seedlings were grown on plates containing Murashige and Skoog medium, […], plus the various molecules to be tested. Seeds were first sterilized by soaking for 15 minutes in a solution containing 0,095% Tween® 20 and 0,57% sodium hypochlorite before to be laid on the agar medium. The plates were conserved in the dark at 4°C for 48 hours, and then transferred in a green house (20°C, 80% humidity, 150 µE.m^-2.s^-1, 12 hours light period). The number of seedlings at the two leaf stage (rosette stage) was counted after 2 weeks.

Series [6] relates to Toxoplasma gondii tachyzoites (RH-YFP2 strain). The experiment in a line: Toxoplasma gondii invasion assay in human fibroblasts. It counts as cell-based. To be noted: for IC50: Toxoplasma gondii, Fibroblast, calculated from the curves of Figures 3A and 3B (invasion and intracellular replication). Here is the method:
as §1
For the invasion assay, RH-YFP2 parasites were incubated for 5 hours with the different drugs. Then 10^6 parasites/well were centrifuged for 30 seconds at 1300 rpm on HFF monolayers to synchronize invasion and wells were incubated for 15 minutes in a water bath at 37°C. Wells were washed three times with cold PBS to eliminate extracellular parasites and cells were fixed in 2.5% formaldehyde/PBS for 30 minutes and stored in PBS at 4°C until staining. To distinguish intracellular from extracellular parasites, cells were incubated with the primary antibody mAb Tg05-54 to detect the major Toxoplasma surface protein SAG1 (TgSAG1), then with Texas Red-conjugated goat anti-mouse secondary antibody (Molecular Probes). […] Nuclei were stained with Hoechst 33258 (Molecular Probes). To determine the number of intracellular parasites, 12 randomly selected fields were counted per well and per experiment with a Zeiss Axioplan 2 microscope equipped for epifluorescence and phase-contrast. Invasion was expressed as % of the number of intracellular parasites recorded in non-treated cells.

For a further series, the system named is Toxoplasma gondii. To be noted: read-out: IC50 generally reported in the literature; P. Meneceur, Antimicrob. Agents Chemother. 52 (2008); cited from earlier work.

Read-outs that look alike come from different tables or passages of the source.

For orientation: IC50 means the concentration that inhibits the measured activity by half.

T1 sequence (Q8LPN3 46-919): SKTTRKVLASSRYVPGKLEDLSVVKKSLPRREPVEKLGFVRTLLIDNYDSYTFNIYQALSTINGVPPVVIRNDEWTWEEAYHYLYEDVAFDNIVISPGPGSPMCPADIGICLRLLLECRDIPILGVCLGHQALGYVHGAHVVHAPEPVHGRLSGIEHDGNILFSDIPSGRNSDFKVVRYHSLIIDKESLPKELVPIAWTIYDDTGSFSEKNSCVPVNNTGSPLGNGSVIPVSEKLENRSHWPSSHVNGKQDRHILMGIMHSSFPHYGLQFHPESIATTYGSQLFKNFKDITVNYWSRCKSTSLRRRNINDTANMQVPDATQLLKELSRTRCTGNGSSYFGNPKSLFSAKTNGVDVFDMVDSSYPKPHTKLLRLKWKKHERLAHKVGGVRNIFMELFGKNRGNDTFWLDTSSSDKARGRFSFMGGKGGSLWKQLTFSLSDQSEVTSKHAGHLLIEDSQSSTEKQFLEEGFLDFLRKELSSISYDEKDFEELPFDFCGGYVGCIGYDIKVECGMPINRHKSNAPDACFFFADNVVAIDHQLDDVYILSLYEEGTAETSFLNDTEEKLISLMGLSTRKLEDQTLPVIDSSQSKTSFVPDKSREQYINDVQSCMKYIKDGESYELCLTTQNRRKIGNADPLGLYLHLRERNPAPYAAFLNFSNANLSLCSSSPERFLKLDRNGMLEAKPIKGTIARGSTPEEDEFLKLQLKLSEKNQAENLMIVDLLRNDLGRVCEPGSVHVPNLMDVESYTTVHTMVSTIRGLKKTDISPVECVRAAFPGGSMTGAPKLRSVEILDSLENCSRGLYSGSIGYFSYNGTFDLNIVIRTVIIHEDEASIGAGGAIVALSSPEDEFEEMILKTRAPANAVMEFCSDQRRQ

As to `CN1CCC2(C)c3cc(O)ccc3N(C)C12` (single isomer, unassigned) [eseroline, reference compound], the “effect on the enzyme activity” value in series [1] is “no or little effect”.
On to `C=C(OC1C(O)=C(C(=O)O)C=CC1N)C(=O)O` (stereo not shown) [2-hydroxy-4-amino-4-deoxy chorismate], for which the Ki on ADCS was 38 µM.
As for `CN1CCC2(C)C3=CC(=O)C(=O)C=C3N(C)C12` (stereo not shown) [rubreserine], the “effect on ADCL” value on ADCL is “no effect”. For the same molecule, the half-inhibitory concentration (IC50) in series [2] was approximately 1.2 µM; in [6], approximately 20 µM. For the same molecule, in series [1] (GAT activity, 10 and 20 µM), the “period of incubation required to obtain maximal inhibition” value is 20 min. Also, the Ki in series [1] (bifunctional GAT-ADCS, summary statement, read-out: apparent inhibitory constant (Ki)) was less than 10 µM; in series [1] (pABA production, varying glutamine, 100 µM chorismate, 20 minutes incubation with rubreserine, estimated from the curves, read-out: Ki), approximately 4 µM; in [1] (pABA production, varying glutamine, 100 µM chorismate, 20 minutes incubation with rubreserine, estimated from the curves, read-out: αKi), approximately 9 µM. Moreover, the type of inhibition result in [1] (decreased Vm for pABA production, increased Km for glutamine) is listed as “mixed-type inhibition”. Also, the “inhibitory effect after incubation with a reducing agent” value in [1] (incubation with dithiothreitol (DTT)) was “suppressed the inhibitory effect”. Also, the “inhibition in the presence of pABA or 5-FTHF” value in series [3] (20 µM rubreserine with 100 µM pABA or 100 µM 5-FTHF) is “significantly reversed the inhibition”. For the same molecule, the “number of parasites in the parasitophorous vacuoles” value in series [3] (24 hours after invasion, 200 vacuoles counted) was “decreased”. In addition, in [3] (rubreserine 20 µM with pyrimethamine 0.4 µM, compared to rubreserine alone), the “inhibition in combination with pyrimethamine” value was “increased”. Moreover, the “effect on confluent human fibroblast cells” value in series [4] is “no effect”. In addition, in [5] (200 µM 5-FTHF together with rubreserine, lower extent than pABA), the “growth inhibition with 5-formyl tetrahydrofolate” value is given as “able to revert the inhibitory effect”. For the same molecule, the “growth inhibition with pABA” value in series [5] (agar plates supplemented with 200 µM pABA together with rubreserine) is “suppressed or largely reduced”. Also, the growth of seedlings result in [5] (agar plates, various concentrations (50 or 100 µM), two weeks) was “dose-dependent growth inhibition”. Besides, the “number of intracellular parasites” value in series [6] (20 µM, parasites incubated 5 hours with drug, 15 minutes contact with human cells) is reported as “reduced two times”. Further, the “efficiency compared with sulfanilamide and sulfadiazine” value in [6] (invasion of human fibroblasts or intracellular replication) is listed as “more efficient”.
`Nc1ccc(S(=O)(=O)Nc2ncccn2)cc1` [sulfadiazine, reference compound]: the IC50 in the series with Toxoplasma gondii is more than 30 µM; in series [6] it was more than 50 µM.
